The values below come from US10590113B2, “6-hydroxy-4-oxo-1,4-dihydropyrimidine-5-carboxamides as APJ agonists” (priority 2016, dated 2020).

For this experiment, the target named is T1, human APJ receptor (Homo sapiens, UniProt P35414).
T1 construct: expressed in transfected cells; host or cells: HEK293
T1 sequence (P35414 1-380): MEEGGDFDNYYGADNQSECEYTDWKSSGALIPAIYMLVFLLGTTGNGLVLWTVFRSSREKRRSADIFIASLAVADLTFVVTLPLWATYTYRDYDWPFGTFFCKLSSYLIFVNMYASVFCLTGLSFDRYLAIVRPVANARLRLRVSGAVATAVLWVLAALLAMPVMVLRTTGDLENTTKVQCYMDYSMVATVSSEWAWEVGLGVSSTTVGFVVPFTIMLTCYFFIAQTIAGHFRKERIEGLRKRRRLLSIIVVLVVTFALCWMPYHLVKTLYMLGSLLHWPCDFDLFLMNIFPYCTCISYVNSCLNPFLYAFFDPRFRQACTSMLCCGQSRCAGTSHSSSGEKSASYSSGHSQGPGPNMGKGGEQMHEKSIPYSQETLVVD
Description: Intracellular cAMP Accumulation Assay (APJ hcAMP, HTRF). It counts as cell-based. A digest of the protocol: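 Stably transfected HEK293 cells (5,000/well) incubated 30 min at room temperature with serially diluted compound, […] and 2 μM forskolin. cAMP measured by HTRF after 60 min with detection reagents, quantified against a cAMP standard curve; EC50 from variable-slope sigmoidal fit of inhibition of forskolin-stimulated cAMP.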
Background: TR-FRET usually uses a lanthanide donor and a delayed reading to cut background.

Where [1] appears, read: human APJ, intracellular cAMP accumulation, read-out: hAPJ cAMP EC50 Potency range.

Like-named read-outs stand apart in the source and are kept apart here.

What is called EC50 is the midpoint of the concentration-response curve. As to `C=CCCc1nc(=O)c(C(=O)N2CC[C@H](c3ccccc3)C2)c(O)n1-c1c(C)cccc1OC` [Example 35, (R)-2-(but-3-en-1-yl)-6-hydroxy-3-(2-methoxy-6-methylphenyl)-5-(3-phenylpyrrolidine-1-carbonyl)pyrimidin-4(3H)-one], the EC50 under setting [1] is 0.01 to 10 nM.

`COc1cccc(OC)c1-n1c(COC(C)(C)C)nc(=O)c(C(=O)N2CCC(c3ccc(F)cc3)C2)c1O` (stereo not shown) [Example 44, 2-[(tert-butoxy)methyl]-1-(2,6-dimethoxyphenyl)-5-[3-(4-fluorophenyl)pyrrolidine-1-carbonyl]-6-hydroxy-1,4-dihydropyrimidin-4-one]: the EC50 under setting [1] lay in the range of 0.01 to 10 nM.

As for `COc1cccc(OC)c1-n1c(COC(C)(C)C)nc(=O)c(C(=O)N2CC[C@H](c3ccccc3)C2)c1O` [Example 51, 2-[(tert-butoxy)methyl]-1-(2,6-dimethoxyphenyl)-6-hydroxy-5-[(3R)-3-phenylpyrrolidine-1-carbonyl]-1,4-dihydropyrimidin-4-one], the concentration giving a half-maximal response (EC50) under setting [1] lay within 0.01 to 10 nM.

For the molecule `CCCCc1nc(=O)c(C(=O)N2Cc3ccc(F)cc3C2)c(O)n1-c1c(OC)cccc1OC` [Example 56, 2-butyl-1-(2,6-dimethoxyphenyl)-5-(5-fluoro-2,3-dihydro-1H-isoindole-2-carbonyl)-6-hydroxy-1,4-dihydropyrimidin-4-one], under setting [1], the concentration for a half-maximal effect (EC50) was in the range of 0.01 to 10 nM.

In the case of `CCCCc1nc(=O)c(C(=O)N2CC[C@H](NC(=O)OCc3ccccc3)C2)c(O)n1-c1c(OC)cccc1OC` [Example 58, benzyl N-[(3S)-1-[2-butyl-1-(2,6-dimethoxyphenyl)-6-hydroxy-4-oxo-1,4-dihydropyrimidine-5-carbonyl]pyrrolidin-3-yl]carbamate], under setting [1], the EC50 was 10 to 100 nM.

For the molecule `CCCCc1nc(=O)c(C(=O)N2CC[C@@H](OCc3ccccc3)C2)c(O)n1-c1c(OC)cccc1OC` [Example 59, 5-[(3R)-3-(benzyloxy)pyrrolidine-1-carbonyl]-2-butyl-1-(2,6-dimethoxyphenyl)-6-hydroxy-1,4-dihydropyrimidin-4-one], under setting [1], the concentration giving a half-maximal response (EC50) lay in the range of 0.01 to 10 nM.

Regarding `CCCCc1nc(=O)c(C(=O)N2Cc3ccncc3C2)c(O)n1-c1c(OC)cccc1OC` [Example 60, 2-butyl-1-(2,6-dimethoxyphenyl)-6-hydroxy-5-{1H,2H,3H-pyrrolo[3,4-c]pyridine-2-carbonyl}-1,4-dihydropyrimidin-4-one], under setting [1], the EC50 is 10 to 100 nM.

With `CCCCc1nc(=O)c(C(=O)N2Cc3cccnc3C2)c(O)n1-c1c(OC)cccc1OC` [Example 61, 2-butyl-1-(2,6-dimethoxyphenyl)-6-hydroxy-5-{5H,6H,7H-pyrrolo[3,4-b]pyridine-6-carbonyl}-1,4-dihydropyrimidin-4-one], the 50% effective concentration (EC50) under setting [1] is 10 to 100 nM.

In the case of `CCCCc1nc(=O)c(C(=O)N2CC[C@@H](NC(=O)OCc3ccccc3)C2)c(O)n1-c1c(OC)cccc1OC` [Example 62, benzyl N-[(3R)-1-[2-butyl-1-(2,6-dimethoxyphenyl)-6-hydroxy-4-oxo-1,4-dihydropyrimidine-5-carbonyl]pyrro1idin-3-yl]carbamate], under setting [1], the EC50 was in the range of 10 to 100 nM.

In the case of `CCCCc1nc(=O)c(C(=O)N2CC[C@H](OCc3ccccc3)C2)c(O)n1-c1c(OC)cccc1OC` [Example 63, 5-[(3S)-3-(benzyloxy)pyrrolidine-1-carbonyl]-2-butyl-1-(2,6-dimethoxyphenyl)-6-hydroxy-1,4-dihydropyrimidin-4-one], the EC50 under setting [1] was in the range of 0.01 to 10 nM.

`CCCCc1nc(=O)c(C(=O)N2CC[C@H](OCc3ccccn3)C2)c(O)n1-c1c(OC)cccc1OC` [Example 64, 2-butyl-1-(2,6-dimethoxyphenyl)-6-hydroxy-5-[(3S)-3-[(pyridin-2-yl)methoxy]pyrrolidine-1-carbonyl]-1,4-dihydropyrimidin-4-one]: the EC50 under setting [1] was 0.01 to 10 nM.

On to `CCCCc1nc(=O)c(C(=O)N2Cc3ccc(C#N)cc3C2)c(O)n1-c1c(OC)cccc1OC` [Example 65, 2-[2-butyl-1-(2,6-dimethoxyphenyl)-6-hydroxy-4-oxo-1,4-dihydropyrimidine-5-carbonyl]-2,3-dihydro-1H-isoindole-5-carbonitrile], for which the EC50 under setting [1] fell in the range of 0.01 to 10 nM.

Turning to `CCCCc1nc(=O)c(C(=O)N2Cc3ccccc3C2)c(O)n1-c1c(OC)cccc1OC` [Example 66, 2-butyl-5-(2,3-dihydro-1H-isoindole-2-carbonyl)-1-(2,6-dimethoxyphenyl)-6-hydroxy-1,4-dihydropyrimidin-4-one], the concentration giving a half-maximal response (EC50) under setting [1] was 0.01 to 10 nM.

With `CCCCc1nc(=O)c(C(=O)N2CCN(Cc3cccc(F)c3)CC2)c(O)n1-c1c(OC)cccc1OC` [Example 69, 2-butyl-1-(2,6-dimethoxyphenyl)-5-{4-[(3-fluorophenyl)methyl]piper-azine-1-carbonyl}-6-hydroxy-1,4-dihydropyrimidin-4-one], the EC50 under setting [1] was in the range of 0.01 to 10 nM.

Take `CCCCc1nc(=O)c(C(=O)N2CCC(c3ccncc3)CC2)c(O)n1-c1c(OC)cccc1OC` [Example 71, 2-butyl-1-(2,6-dimethoxyphenyl)-6-hydroxy-5-[4-(pyridin-4-yl)piperidine-1-carbonyl]-1,4-dihydropyrimidin-4-one]: the concentration for a half-maximal effect (EC50) under setting [1] lay within 0.01 to 10 nM.

In the case of `CCCCc1nc(=O)c(C(=O)N2CCC(c3ccccc3)CC2)c(O)n1-c1c(OC)cccc1OC` [Example 72, 2-butyl-1-(2,6-dimethoxyphenyl)-6-hydroxy-5-(4-phenylpiperidine-1-carbonyl)-1,4-dihydropyrimidin-4-one], under setting [1], the 50% effective concentration (EC50) was 10 to 100 nM.

`CCCCc1nc(=O)c(C(=O)N2CCC(c3ccc(F)cc3)CC2)c(O)n1-c1c(OC)cccc1OC` [Example 74, 2-butyl-1-(2,6-dimethoxyphenyl)-5-[4-(4-fluorophenyl)piperidine-1-carbonyl]-6-hydroxy-1,4-dihydropyrimidin-4-one]: the EC50 under setting [1] lay within 10 to 100 nM.

With `CCCCc1nc(O)c(C(=O)N2CC[C@@H](c3ccccc3)C2)c(=O)n1-c1c(CC)cccc1CC` [Example 86, 2-butyl-3-(2,6-diethylphenyl)-6-hydroxy-5-[(3S)-3-phenylpyrrolidine-1-carbonyl]-3,4-dihydropyrimidin-4-one], the EC50 lay in the range of 0.01 to 10 nM.

On to `CCCCc1nc(=O)c(C(=O)N2CCC(c3ccc(F)cc3)C2)c(O)n1-c1c(OC)cccc1OC` (stereo not shown) [Example 87, 2-butyl-3-(2,6-dimethoxyphenyl)-5-[3-(4-fluorophenyl)pyrrolidine-1-carbonyl]-6-hydroxy-3,4-dihydropyrimidin-4-one], for which, under setting [1], the 50% effective concentration (EC50) lay within 0.01 to 10 nM.

As to `CCCCc1nc(=O)c(C(=O)N2CC(c3cccc(Cl)c3)C2)c(O)n1-c1c(OC)cccc1OC` [Example 88, 2-butyl-5-[3-(3-chlorophenyl)azetidine-1-carbonyl]-3-(2,6-dimethoxyphenyl)-6-hydroxy-3,4-dihydropyrimidin-4-one], the 50% effective concentration (EC50) under setting [1] lay in the range of 0.01 to 10 nM.

Molecule `CCCCc1nc(=O)c(C(=O)N2CC[C@H](c3ccccc3)C2)c(O)n1-c1c(CC)cccc1CC` [Example 90, 2-butyl-3-(2,6-diethylphenyl)-6-hydroxy-5-[(3R)-3-phenylpyrrolidine-1-carbonyl]-3,4-dihydropyrimidin-4-one] returned a half-maximal effective concentration (EC50) of 0.01 to 10 nM.

As for `COc1cccc(OC)c1-n1c(CCC2CC2)nc(=O)c(C(=O)N2CC[C@H](c3ccccc3)C2)c1O` [Example 96, 2-(2-cyclopropylethyl)-1-(2,6-dimethoxyphenyl)-6-hydroxy-5-[(3R)-3-phenylpyrrolidine-1-carbonyl]-1,4-dihydropyrimidin-4-one], the EC50 under setting [1] was in the range of 0.01 to 10 nM.

`[2H]C([2H])([2H])Oc1cccc(OC([2H])([2H])[2H])c1-n1c(COCC)nc(=O)c(C(=O)N2CC[C@H](c3ccccc3)C2)c1O` [Example 106, 1-[2,6-bis(^2H3)methoxyphenyl]-2-(ethoxymethyl)-6-hydroxy-5-[(3R)-3-phenylpyrrolidine-1-carbonyl]-1,4-dihydropyrimidin-4-one] registered a 50% effective concentration (EC50) of 0.01 to 10 nM.

For the molecule `[2H]C([2H])([2H])Oc1cccc(OC([2H])([2H])[2H])c1-n1c(COCC)nc(=O)c(C(=O)N2CC[C@@H](c3ccccc3)C2)c1O` [Example 109, 1-[2,6-bis(^2H3)methoxyphenyl]-2-(ethoxymethyl)-6-hydroxy-5-[(3S)-3-phenylpyrrolidine-1-carbonyl]-1,4-dihydropyrimidin-4-one], the EC50 was in the range of 0.01 to 10 nM.

For `COc1cccc(OC)c1-n1c(COC(C)C)nc(=O)c(C(=O)N2CC(c3ccccc3)C2)c1O` [Example 110, 1-(2,6-dimethoxyphenyl)-6-hydroxy-5-(3-phenylazetidine-1-carbonyl)-2-[(propan-2-yloxy)methyl]-1,4-dihydropyrimidin-4-one], the EC50 under setting [1] lay in the range of 10 to 100 nM.

For the molecule `COc1cccc(OC)c1-n1c(COC(C)C)nc(=O)c(C(=O)N2CC(c3ccc(C)cc3)C2)c1O` [Example 111, 1-(2,6-dimethoxyphenyl)-6-hydroxy-5-[3-(4-methylphenyl)azetidine-1-carbonyl]-2-[(propan-2-yloxy)methyl]-1,4-dihydropyrimidin-4-one], the EC50 under setting [1] is 10 to 100 nM.

In the case of `CCCCc1nc(=O)c(C(=O)N2CC[C@@H](c3ccccc3)C2)c(O)n1-c1c(OC)ncnc1OC` [Example 112, 2-butyl-3-(4,6-dimethoxypyrimidin-5-yl)-6-hydroxy-5-[(3S)-3-phenylpyrrolidine-1-carbonyl]-3,4-dihydropyrimidin-4-one], the EC50 under setting [1] was 0.01 to 10 nM.

As for `CCCCc1nc(=O)c(C(=O)N2CC[C@H](c3ccccc3)C2)c(O)n1-c1c(OC)ncnc1OC` [Example 113, 2-butyl-3-(4,6-dimethoxypyrimidin-5-yl)-6-hydroxy-5-[(3R)-3-phenylpyrrolidine-1-carbonyl]-3,4-dihydropyrimidin-4-one], the EC50 under setting [1] lay within 0.01 to 10 nM.
